Tests used:
KB-S15 cells = experiment: Clonogenic assay, KB-S15; format: cell-based, Human
Procedure: Human lung adenocarcinoma A549 cells and NTUB1 bladder cancer cells were maintained in RPMI supplied with 10% fetal bovine serum. […] KB-derived MRP1-expressing cell line, KB-7D, was maintained in growth medium supplemented with 7 µM VP-16.
Two hundred cells in logarithmic growth phase were seeded in a 6-well plate. The cells were exposed to various concentrations of the test drugs for a three-generation period. At the end of the incubation period, cells were fixed and stained with 50% ethanol containing 0.5% methylene blue for 30 min. The plates were washed five times with water and allowed to air-dry. Colonies were countered manually. […] Each value represents the average of at least three independent experiments run in triplicates.

CHK1 = target: T1, CHK1 (Homo sapiens, UniProt O14757); experiment: Kinase inhibition assay, CHK1; format: biochemical
T1 construct: His-tagged CHK1 (residues M1-T476); His; made in house; host or cells: Sf9 insect cells
Procedure: CHK1/2 – The recombinant His-tagged CHK1 (residues M1-T476) or CHK2 (residues M1-L543) containing kinase domain were expressed in Sf9 insect cells. The kinase assay was carried out in 96-well plates with the tested compound at 30°C for 120 min.
Composition of the reaction buffers used in different kinase inhibitory assays is described in Figure S3.
25 mM HEPES pH 7.4, 10mM MgCl2, 4mM MnCl2, 0.5mM Na3VO4, 2 mM DTT, 0.02% Triton X100, 0.01% BSA, 1 mM ATP, 2 mM CHK peptide ([…]), 50~500 ng recombinant CHK1 or CHK2.

T1 sequence (O14757 whole entry, the tested form may be a part): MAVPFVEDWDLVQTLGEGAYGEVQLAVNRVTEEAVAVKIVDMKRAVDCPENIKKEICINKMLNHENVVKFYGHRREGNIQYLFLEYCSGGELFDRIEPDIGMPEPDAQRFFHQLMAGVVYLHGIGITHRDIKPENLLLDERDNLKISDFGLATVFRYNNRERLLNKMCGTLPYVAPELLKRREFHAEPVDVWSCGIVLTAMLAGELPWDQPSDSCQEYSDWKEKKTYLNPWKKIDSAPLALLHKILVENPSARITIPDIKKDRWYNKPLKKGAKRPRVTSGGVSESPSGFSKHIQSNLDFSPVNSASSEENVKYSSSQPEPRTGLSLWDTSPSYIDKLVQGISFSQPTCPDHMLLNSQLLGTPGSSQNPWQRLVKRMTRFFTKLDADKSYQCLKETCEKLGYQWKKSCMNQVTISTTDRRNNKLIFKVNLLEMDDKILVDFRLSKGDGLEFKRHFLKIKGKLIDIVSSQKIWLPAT

IC50 (KB-S15 cells; Homo sapiens, KB-S15, paclitaxol resistant, MDR1 ↑, read-out: IC50, anti-proliferative activity): 11 ± 4 nM | IC50 (CHK1): > 10000 nM
Compound: CN(C)Cc1ccccc1NC(=O)Nc1ccc(CCNc2ncnc3oc(-c4ccccc4)c(Cl)c23)cc1 [BPR1K653]
Fold difference as compare to the IC50 in the respective parental cells (KB-S15 cells; KB-S15 vs KB): 1 fold

From publication PMC3160846 (PLoS ONE, 2011)
